Inconclusive results are not listed. Calls of active or inactive are those of the source. How the calls were made is not given here.
What follows are compounds tested on C. albicans CaCi-8 + fluconazole, Alamar Blue growth, 48 h (assay: resistant C. albicans growth inhibition with fluconazole, dose response, CaCi-8 strain, Alamar Blue fluorescence (AID 2423)).

Compound	EC50
Cc1ccc(NC(=O)NNC(=O)c2cc3ccccc3cc2O)cc1C	> 16000 nM (inactive)
O=c1c2ccc(Cl)cc2nc(-c2ccc([N+](=O)[O-])cc2)n1O	1100 nM
CCOC(=O)c1ccc(Oc2nc(NC(C)(C)C)nc(N(C)C)n2)cc1	13300 nM
CCOc1ccccc1NC(=O)c1cc(S(=O)(=O)N2CCC3(CC2)OCCO3)ccc1F	> 16000 nM (inactive)
Cc1c(Nc2scc(-c3ccccc3)[n+]2-c2ccccc2)c(=O)n(-c2ccccc2)n1C	225 nM
CN(C)c1ccc(C(=O)N/N=C/c2cc(Br)cc(Br)c2O)cc1	10900 nM
O=[N+]([O-])c1cc(S(=O)(=O)C(F)(F)F)ccc1Sc1nc2ccccc2s1	3200 nM
Clc1ccc2c(c1)C(c1cccs1)=NNC(c1cccnc1)=N2	< 120 nM
CCC(C)OC(=O)C[N+](C)(C)CCOC1CC2CCC1(C)C2(C)C (configuration not stated)	6590 nM
O=[N+]([O-])c1cc(O)c2ncccc2c1	763 nM
Cc1ccc(S(=O)(=O)Nc2ccc(O)c3ncccc23)cc1	3310 nM
CCCOc1ccc(C(=O)NNC(=S)NC(=O)CC)cc1	937 nM
CN1CCN(C(c2ccc(C(F)(F)F)cc2)c2ccc3cccnc3c2O)CC1 (configuration not stated)	883 nM
CCOC(=O)c1cc([N+](=O)[O-])c([N+](=O)[O-])cc1NC(C)=O	692 nM
Oc1c(C(Nc2nc3ccccc3s2)c2ccco2)ccc2cccnc12 (configuration not stated)	1980 nM
O=C(CCNC(=O)c1ccc(Br)cc1)Nc1nccs1	> 15000 nM (inactive)
Cc1ccc(/C=C/C(=O)c2ccccc(=O)c2O)c(C)c1	1260 nM
N#Cc1c(-c2ccc(Cl)cc2)cc(-c2ccccc2)nc1SCC(=O)O	1200 nM
O=C(COc1ccc2c(c1)CCC2)N1CCN(c2cccc(C(F)(F)F)c2)CC1	> 16000 nM (inactive)
O=c1nc(/C=C/c2cc([N+](=O)[O-])ccc2Cl)cc(C(F)(F)F)[nH]1	946 nM
CCCCOc1cccc(C2C(C(=O)c3ccc(C)o3)=C(O)C(=O)N2Cc2ccco2)c1 (configuration not stated)	394 nM
Cc1ccc2nsnc2c1NC(=O)COc1ccccc1F	> 15000 nM (inactive)
O=C(O)c1cccc(CSc2nc(-c3ccccc3)cc(C(F)(F)F)n2)c1	6820 nM

Compound	EC50
Cc1ccc(NC(=O)CSc2nnc([C@@H](N)Cc3c[nH]c4ccccc34)o2)c(C)c1	> 15000 nM (inactive)
COc1ccc(-c2nnc(Nc3nc4c(OC)cccc4s3)o2)c(OC)c1	2710 nM
Nc1c(S(=O)(=O)c2ccccc2)c2nc3ccccc3nc2n1CCN1CCOCC1	2970 nM
COc1cccc(/C=N/NC(=O)C(=O)Nc2ccccc2OC(F)(F)C(F)F)c1O	1020 nM
CS/C(=N\S(=O)(=O)c1cccs1)Nc1ccc(Br)cc1F	801 nM
COc1ccc(-c2nnc(NC(=O)c3ccc(S(=O)(=O)N4CCc5ccccc5C4)cc3)o2)cc1	747 nM
O=C(N/N=C/c1cc(Br)c(O)c(Br)c1)c1cc2c(ccc3ccccc32)o1	915 nM
Cc1ccc2nc(Cl)c3nnnn3c2c1	230 nM
NC(N)=N/N=C/c1ccc(N(c2ccccc2)c2ccccc2)cc1	> 15000 nM (inactive)
CC(C)OP(=O)(c1ccc(N(C)C)cc1)C(O)c1ccccc1 (configuration not stated)	4320 nM
CC(C)CCN1C(=O)c2ccc(C(=O)Nc3ccc(Br)cc3C(=O)O)cc2C1=O	1270 nM
O=C(Oc1c(CN2CCOCC2)cc(Cl)c2cccnc12)c1ccccc1Cl	2420 nM
COc1cc(OC)cc(N(C(=O)C2COc3ccccc3O2)C(C(=O)NC2CCCCC2)c2ccc(O)cc2)c1 (configuration not stated)	> 16000 nM (inactive)
N/C(Cc1ccc(Cl)cc1Cl)=N\OC(=O)c1ccccc1	833 nM
CCCCOc1ccc(C(=O)NNC(=S)NC(=O)CC)cc1	858 nM
CC1CCC(C(=O)c2c(O)c3ccccc3oc2=O)CC1 (configuration not stated)	2900 nM
Cc1ccc2c(c1)sc(-c1ccc(N(C)C)cc1)[n+]2C	193 nM
CN(C(=O)CSc1nnc(-c2ccco2)o1)C1CCCCC1	13200 nM
S=C(Nc1ccccc1)Nc1nc2ccccc2n1CCOc1ccccc1	2000 nM
Cc1ccc(C(=O)c2oc3nc(C)cc(C)c3c2N)cc1	5280 nM
CC(=O)N1CCN(c2ccc(NC(=O)c3ccc(C(C)(C)C)cc3)cc2)CC1	11900 nM
c1ccc(-c2ccccc2OCCCN2CCCCCC2)cc1	6610 nM
O=[N+]([O-])c1ccc(O)c2ncccc12	681 nM

Compound	EC50
CC(=O)Nc1ncnc2c1c(-c1ccc(Cl)cc1)nn2C(C)(C)C	1330 nM
CCOc1ccc(/C=N/NC(=O)c2[nH]ncc2Br)c(O)c1	1850 nM
CCc1ccc(/C=C2\SC(=S)N(CCCC(=O)Nc3ccccc3C(=O)O)C2=O)cc1	304 nM
COc1ccc(-c2cc(-c3cc(F)ccc3O)[nH]n2)cc1OC	13900 nM
COc1cccc2sc(Nc3nnc(-c4ccc(F)cc4)o3)nc12	1240 nM
COc1ccc(C(c2c(O)ccc3ccccc23)N2CCOCC2)c(OC)c1 (configuration not stated)	2850 nM
COc1cnc(-c2ccccn2)nc1NC(C)C	> 15000 nM (inactive)
Cc1[nH]c2ccccc2c1C(=O)CCl	175 nM
COc1ccc(OC)c(C2C(C(=O)c3cc4ccccc4o3)=C(O)C(=O)N2c2cc(C)on2)c1 (configuration not stated)	< 120 nM
NNC(=S)Nc1cccc(Cl)c1	8450 nM
O=[N+]([O-])CC(c1ccccc1)P(=O)(c1ccccc1)c1ccccc1 (configuration not stated)	1890 nM
O=C(CSc1nc(-c2ccccc2)cs1)Nc1nccs1	> 16000 nM (inactive)
Cc1ccc(C2CC2C(=O)NNC(=S)Nc2cccc(Cl)c2)cc1 (configuration not stated)	3320 nM
C/C(=N\NC(=O)c1cccc(N/N=C(\C)c2cc(O)ccc2O)c1)c1cc(O)ccc1O	> 15000 nM (inactive)
COc1cccc(-n2c(SCc3cc(=O)oc4cc(O)c(O)cc34)nc3ccccc3c2=O)c1	5670 nM
O=C(CN1CCCc2ccccc21)N/N=C/c1c(O)ccc2ccccc12	1200 nM
CCOc1cc(C=O)cc(N=Nc2cccc([N+](=O)[O-])c2)c1O	639 nM
COc1cccc(/C=N/NC(=O)c2c(C)nc3ccc(Br)cn23)c1O	642 nM
CCn1c(/C=C/c2ccc([N+](=O)[O-])o2)nc2ccccc2c1=O	< 120 nM
NNC(=O)c1cc(O)c(O)c(O)c1	8640 nM
COc1ccc(-c2nc(-c3ccncc3)no2)cc1OC	7540 nM
Oc1ccc(O)c2c1C1c3ccccc3C2c2ccccc21	2050 nM
CC(C)(C)c1nnc(NC(=O)CCS(=O)(=O)c2ccccc2)s1	943 nM

Compound	EC50
CCCCNC(=O)c1cn(C)c2ccc(S(=O)(=O)N3CCCC3)cc2c1=O	> 15000 nM (inactive)
Cc1cc(C(=O)Nc2ccccc2C(=O)O)ccc1NC(=O)COc1cccc([N+](=O)[O-])c1	5270 nM
O=C(N/N=C\c1cc(Cl)ccc1O)c1ccc(S(=O)(=O)N2CCCCC2)cc1	926 nM
COc1cccc(C2/C(=C(/O)c3ccc(C)cc3)C(=O)C(=O)N2Cc2ccco2)c1 (configuration not stated)	7030 nM
O=C(/C=C/c1ccco1)Nc1cccc(-c2nc3ccccc3[nH]2)c1	1250 nM
COc1ccc(/C=C2\N=C(SC)NC2=O)cc1	3750 nM
CCc1nnc(NC(=O)CN2CCN(c3nc(-c4ccccc4)cs3)CC2)s1	371 nM
CCCc1ccc(C2C3=C(CC(C)(C)CC3=O)NC3=C2C(=O)c2ccccc23)cc1 (configuration not stated)	1780 nM
Cc1cc(NC(c2ccc(Cl)cc2)c2ccc3cccnc3c2O)no1 (configuration not stated)	598 nM
O=C(Oc1ccc(Cl)c2cccnc12)c1cccc([N+](=O)[O-])c1	12300 nM
O=C(c1ccc(C(=O)N2CCN(c3ccccc3F)CC2)nc1)N1CCN(c2ccccc2F)CC1	> 16000 nM (inactive)
COC(=O)C1=NN(C(=O)c2ccc(Cl)cc2)C(O)(c2ccccc2)C1 (configuration not stated)	> 16000 nM (inactive)
Cc1cc(/C=N/n2c(COc3ccccc3C)nc3ccccc3c2=O)c(O)c([N+](=O)[O-])c1	1620 nM
Oc1c(Br)cc(Br)cc1Oc1ccc(Br)cc1Br	1760 nM
CCc1nnc(NC(=O)CSc2nc(SC)ns2)s1	1490 nM
O=C1/C(=C/c2cccnc2)CCc2c1[nH]c1ccccc21	1240 nM
CCOC(=O)C1CCN(C(=O)c2ccc3c(=O)n4nc(Nc5cc(C)ccc5C)sc4nc3c2)CC1	400 nM
Cc1cccc(C2c3[nH]c4ccccc4c3CCN2C(=O)c2cc(-c3cccn3C)n[nH]2)n1 (configuration not stated)	1050 nM
Oc1cccc(Nc2ncnc3c2oc2ccccc23)c1	6650 nM
O=C(CCS(=O)(=O)c1ccc(Cl)cc1)Nc1nc(-c2ccncc2)cs1	709 nM
CC(=O)Nc1ccc(N2CC(C)(C)C2=O)cc1	> 15000 nM (inactive)
Cc1cccc(NC(=S)N/N=C(\c2ccccc2)C(C)C)c1	3120 nM
COc1cnc(-c2ccccn2)nc1Sc1cccc(Cl)c1	> 16000 nM (inactive)

Compound	EC50
O=c1c2ccccc2nc(N/N=C/c2c(O)ccc3ccccc23)n1O	238 nM
CCOC(=O)c1nc(NNC(=O)c2ccc([N+](=O)[O-])cc2)sc1C	981 nM
O=C(N/N=C/c1ccc(Cl)cc1Cl)Nc1ccccc1	> 16000 nM (inactive)
CCOc1ccc(NC(=O)c2cn(-c3ccc(OCC)cc3)c(=O)c3cc(OC)c(OC)cc23)cc1	485 nM
COc1cccc(/C=N/Nc2cc(N3CCOCC3)ncn2)c1O	6270 nM
CN(C)c1ccc(-c2n(C)c3ccccc3[n+]2C)cc1	3930 nM
O=C1c2ccccc2NC(c2cn[nH]c2-c2ccc(Cl)cc2)N1O (configuration not stated)	> 16000 nM (inactive)
CCOC(=O)c1c(NC(=S)NCC2CCCO2)sc(C)c1C (configuration not stated)	< 120 nM
Cc1nn(-c2ccccc2)c(Cl)c1/C=C/C(=O)c1ccc(O)cc1	1640 nM
CCCC(=O)NC(=S)NNC(=O)c1ccc([N+](=O)[O-])cc1	4900 nM
CCCc1ccc(/C=C2\C(=O)c3ccccc3C(O)=C2C(=O)OCC)cc1	> 15000 nM (inactive)
COc1cccc(/C=N/Nc2ncnc3scc(-c4ccccc4)c23)c1O	1190 nM
Cc1ccccc1-c1ccnc2[nH]n(-c3ccccc3)c(=O)c12	14500 nM
N#Cc1c(Cl)nsc1NC(=O)c1ccccc1	> 16000 nM (inactive)
c1ccc(CC2CCN(c3ncnc4sccc34)CC2)cc1	1530 nM
[O-][N+]1=c2ccc(Nc3ccccc3)cc2=NC12CCCCC2	750 nM
CCn1nc(-c2ccccc2)nc2c(=O)n(C)c(=O)nc1-2	883 nM
Cc1ccc(C(C)C)c(OCc2ccc(C(=O)N/N=C/c3cccc(O)c3O)cc2)c1	788 nM
N=C1/C(=C\c2ccc(SCc3ccccc3)o2)C(=O)N=C2SC=NN12	> 15000 nM (inactive)
C[C@]12CCC3[C@@H](CC[C@H]4C[C@@H](O)CC[C@]34C)C1CCC2=O (some centres not stated)	1480 nM
